Source: ChEMBL document CHEMBL3817791, “Discovery of 4-(4-aminopyrazolo[1,5-a][1,3,5]triazin-8-yl)benzamides as novel, highly potent and selective, orally bioavailable inhibitors of Tyrosine Threonine Kinase, TTK” (Bioorg Med Chem Lett, 2016)

What was measured:
[1] = Cmax in CD-1 nude mouse at 55 mg/ml, po; assay type: ADME, organism-based; set-up: dose 55 mg/ml, route oral; conditions: in vivo
[2] = target: MAP kinase-activated protein kinase 2 (Homo sapiens) (UniProt P49137); experiment: Inhibition of recombinant human N-terminal GST-tagged MAPKAPK2 (46 to 400 residues) expressed in Escherichia coli at 1 uM by radiometric assay relative to control
Aurora kinase A = target: T1, Aurora kinase A (Homo sapiens, UniProt O14965); experiment: Inhibition of full length recombinant human N-terminal His6-tagged Aurora A expressed in Sf21 cells by radiometric assay
T1 sequence (O14965 whole entry): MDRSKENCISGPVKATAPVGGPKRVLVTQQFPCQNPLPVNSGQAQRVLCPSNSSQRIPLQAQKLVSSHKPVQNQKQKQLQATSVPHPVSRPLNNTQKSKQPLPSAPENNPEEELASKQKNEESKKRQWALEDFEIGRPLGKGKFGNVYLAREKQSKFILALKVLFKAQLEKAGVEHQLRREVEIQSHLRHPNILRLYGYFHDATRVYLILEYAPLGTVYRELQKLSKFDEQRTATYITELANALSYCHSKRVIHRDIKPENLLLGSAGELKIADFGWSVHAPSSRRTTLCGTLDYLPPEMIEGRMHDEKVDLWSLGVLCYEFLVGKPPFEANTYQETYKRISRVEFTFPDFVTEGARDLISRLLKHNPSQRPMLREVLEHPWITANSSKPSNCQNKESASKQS

[3] = target: T2, Serine/threonine-protein kinase PLK4 (Homo sapiens, UniProt O00444); experiment: Inhibition of human PLK4 by radiometric assay
T2 sequence (O00444 whole entry): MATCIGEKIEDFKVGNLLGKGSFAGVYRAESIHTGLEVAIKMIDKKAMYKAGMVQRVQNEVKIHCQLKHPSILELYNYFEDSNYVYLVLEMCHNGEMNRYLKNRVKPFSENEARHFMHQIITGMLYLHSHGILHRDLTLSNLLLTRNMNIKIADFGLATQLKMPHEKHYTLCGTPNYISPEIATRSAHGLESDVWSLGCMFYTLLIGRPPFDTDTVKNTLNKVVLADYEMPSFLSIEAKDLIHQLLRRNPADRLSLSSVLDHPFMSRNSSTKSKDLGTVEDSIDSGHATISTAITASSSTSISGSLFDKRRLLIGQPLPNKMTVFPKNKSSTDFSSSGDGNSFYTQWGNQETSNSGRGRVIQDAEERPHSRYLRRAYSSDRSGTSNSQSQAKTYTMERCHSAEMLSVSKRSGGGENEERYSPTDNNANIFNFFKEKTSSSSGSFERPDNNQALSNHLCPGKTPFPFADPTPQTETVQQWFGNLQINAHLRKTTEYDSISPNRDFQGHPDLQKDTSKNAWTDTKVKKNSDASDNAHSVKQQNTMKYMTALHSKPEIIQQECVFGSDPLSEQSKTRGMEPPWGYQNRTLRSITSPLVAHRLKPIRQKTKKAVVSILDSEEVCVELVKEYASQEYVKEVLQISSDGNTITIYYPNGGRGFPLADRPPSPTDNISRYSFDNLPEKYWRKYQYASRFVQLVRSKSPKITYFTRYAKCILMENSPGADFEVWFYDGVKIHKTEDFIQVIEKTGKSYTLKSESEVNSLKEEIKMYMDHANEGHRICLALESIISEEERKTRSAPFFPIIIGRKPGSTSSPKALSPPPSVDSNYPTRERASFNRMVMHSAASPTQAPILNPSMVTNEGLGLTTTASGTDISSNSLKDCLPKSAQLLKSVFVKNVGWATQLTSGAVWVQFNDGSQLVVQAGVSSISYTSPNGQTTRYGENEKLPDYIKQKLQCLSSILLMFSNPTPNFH

[4] = Antiproliferative activity against human PA1 cells; assay type: functional; conditions: PA-1

Sequence of MAP kinase-activated protein kinase 2 (Homo sapiens) (P49137 whole entry, looked up, the tested form may be a part): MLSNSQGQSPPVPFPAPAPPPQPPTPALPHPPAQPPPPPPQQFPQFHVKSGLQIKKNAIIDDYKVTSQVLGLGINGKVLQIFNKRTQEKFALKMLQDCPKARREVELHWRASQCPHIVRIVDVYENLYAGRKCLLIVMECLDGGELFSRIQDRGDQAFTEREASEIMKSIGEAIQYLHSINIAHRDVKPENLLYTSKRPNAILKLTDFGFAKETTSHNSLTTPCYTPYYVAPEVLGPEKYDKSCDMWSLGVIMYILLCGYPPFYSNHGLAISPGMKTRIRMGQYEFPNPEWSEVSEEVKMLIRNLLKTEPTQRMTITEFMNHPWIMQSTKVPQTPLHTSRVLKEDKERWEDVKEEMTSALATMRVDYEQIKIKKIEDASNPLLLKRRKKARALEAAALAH

## Cc1cc(-c2cnn3c(NCC4CCOCC4)nc(Oc4ccccc4)nc23)ccc1C(=O)NC1CC1
[1]
  Cmax: 7600 ng/mL
[2]
  inhibition: -8%
Aurora kinase A
  IC50: > 50 µM
[3]
  IC50: > 50 µM
[4]
  GI50: 0.03 µM
